Assay results from article PMC6268773, “Aminodi(hetero)arylamines in the Thieno[3,2-b]pyridine Series: Synthesis, Effects in Human Tumor Cells Growth, Cell Cycle Analysis, Apoptosis and Evaluation of Toxicity Using Non-Tumor Cells” (Molecules, 2012).

Key:
[1] = SRB toxicity assay in non-tumor porcine liver primary cells; format: cell-based; conditions: pig, porcine liver primary cell culture (PLP1), non-tumor, PLP1 non-tumor porcine liver cells, 48h continuous treatment, SRB, mean ± SD, n = 3
Method: (§1) The effects of the aminodi(hetero)arylamines in the growth of four human tumour cell lines (MCF-7, A375-C5, NCI-H460 and HepG2) were evaluated using the SRB assay. Doxorubicin and ellipticine were used as positive controls. Furthermore, to investigate the possible toxicity of the compounds, the in vitro cell growth inhibition assay (SRB) was also performed using porcine liver non-tumor cells (PLP1) established by us.
(§2) Porcine liver primary cell culture (PLP1) was prepared from freshly harvested porcine liver, obtained from a local slaughter house. Briefly, the liver tissue was rinsed in HBSS solution containing 100 U/mL penicillin, 100 µg/mL streptomycin and divided into 1 × 1 mm^3 explants. Some of these explants were placed in 25 cm^2 tissue flasks in DMEM medium supplemented with 10% FBS, 2 mM nonessential amino acids, 100 U/mL penicillin and […] streptomycin. This cell culture was maintained according to the procedure described previously by us.
(§3) The effects of the compounds on the in vitro growth of human tumor cell lines and non-tumor porcine liver primary cells were evaluated according to the procedure adopted by the NCI (USA) in their “In vitro Anticancer Drug Discovery Screen”, using the SRB assay to assess cell growth.
(§4) For the cell lines, exponentially growing cells were obtained by plating 1.5 × 10^5 cells/mL for MCF-7, 0.75 × 10^5 cells/mL for A375-C5 and NCI-H460, and 5.0 × 10^5 cells/mL for HepG2, followed by 24 h of incubation. For the primary porcine liver cells, cells were incubated in 96-well plates at a density of 5.0 × 10^5 cells/mL, and cultivated in DMEM medium with 10% FBS, 100 U/mL penicillin and […] streptomycin.
(§5) Following a 24 h period to allow cells to adhere, cells were treated for 48 h with six serial dilutions of each test compound, starting from a maximum concentration of 125 µM. Following the 48 h treatment period, adherent cells were fixed in situ, washed and stained with SRB. The bound stain was solubilized and the absorbance was measured at 492 nm in the case of MCF-7, NCI-H460 and A375-C5 cells and at 515 nm in the case od HepG2 and PLP1 primary cells, in a plate reader (Biotek Instruments Inc., Powerwave XS, Bedfordshire, UK). Dose response curves were obtained and the concentration of the diarylamine that inhibited 50% of the net cell growth (GI50) was calculated as described elsewhere. Doxorubicin and ellipticine were used as positive controls of cell growth inhibition.

[2] = test system: MCF-7 (breast adenocarcinoma); experiment: SRB cell growth inhibition assay, MCF-7; format: cell-based; conditions: Homo sapiens, MCF7, MCF-7, 48h continuous treatment, mean ± SD, n = 3
Method: as §1
(§6) Four human tumor cell lines, MCF-7 (breast adenocarcinoma), A375-C5 (melanoma), NCI-H460 (non-small cell lung cancer) and HepG2 (hepatocellular carcinoma) were used. MCF-7, A375-C5 and HepG2 were obtained from the European Collection of Cell Cultures (ECACC, Salisbury, UK) and NCI-H460 was kindly provided by the National Cancer Institute (NCI, Bethesda, MD, USA). Cells were routinely maintained as adherent cell cultures in RPMI-1640 medium supplemented with 5% FBS (MCF-7, NCI-H460 and A375-C5 cells) or in DMEM supplemented with 10% FBS, 2 mM glutamine, 100 U/mL penicillin and […] streptomycin (HepG2 cells), at 37 °C in a humidified atmosphere containing 5% CO2.
as §3, §4, §5

[3] = test system: NCI-H460 (non-small cell lung cancer); experiment: SRB cell growth inhibition assay, NCI-H460; format: cell-based; conditions: Homo sapiens, NCI-H460, 48h continuous treatment, mean ± SD, n = 3
Method: as §1, §6, §3, §4, §5

[4] = test system: HepG2 (hepatocellular carcinoma); experiment: SRB cell growth inhibition assay, HepG2; format: cell-based; conditions: Homo sapiens, HepG2, 48h continuous treatment, mean ± SD, n = 3
Method: as §1, §6, §3, §4, §5

A375-C5 (melanoma) = experiment: SRB cell growth inhibition assay, A375-C5; format: cell-based; conditions: Homo sapiens, A375-C5, 48h continuous treatment, mean ± SD, n = 3
Method: as §1, §6, §3, §4, §5

[5] = test system: porcine liver primary cell culture (PLP1); experiment: SRB toxicity assay in non-tumor porcine liver primary cells; format: cell-based
Method: as §1, §2, §3, §4, §5

NCI-H460 cells [6] = experiment: Cell cycle distribution profile by flow cytometry (propidium iodide); format: cell-based, human; conditions: NCI-H460, compound at GI50 concentration (1.4 μM), 48 h
Method: NCI-H460 cells were plated in 6-well plates at a final density of 1.5 × 10^5 cells/well and incubated at 37 °C for 24 h. […] As controls, cells were also incubated with medium only (blank) and with the compound’s vehicle (DMSO). Following 48 h of treatment, cells were fixed overnight in ice-cold 70% ethanol and re-suspended in PBS containing 0.1 mg/mL RNase A and 5 µg/mL propidium iodide. Cellular DNA content was analysed by flow cytometry using an Epics XL-MCL Coulter Flow cytometer (Brea, CA, USA) plotting at least 20,000 events per sample, as previously described. The analysis of cell cycle distribution was subsequently performed using the FlowJo 7.2 software (Tree Star, Inc., Ashland, USA) after cell debris and aggregates exclusion.

[7] = test system: human tumor cell lines MCF-7, A375-C5, NCI-H460 and HepG2; experiment: SRB cell growth inhibition, all tested human tumor cell lines (summary); format: cell-based; conditions: span over MCF-7, A375-C5, NCI-H460, HepG2, 48 h
Method: as §1, §3
For the cell lines, exponentially growing cells were obtained by plating 1.5 × 10^5 cells/mL for MCF-7, 0.75 × 10^5 cells/mL for A375-C5 and NCI-H460, and 5.0 × 10^5 cells/mL for HepG2, followed by 24 h of incubation. […]
Following a 24 h period to allow cells to adhere, cells were treated for 48 h with six serial dilutions of each test compound, starting from a maximum concentration of 125 µM. […] The bound stain was solubilized and the absorbance was measured at 492 nm in the case of MCF-7, NCI-H460 and A375-C5 cells and at 515 nm in the case od HepG2 and PLP1 primary cells, in a plate reader (Biotek Instruments Inc., Powerwave XS, Bedfordshire, UK). […]

NCI-H460 cells [8] = experiment: Apoptosis by flow cytometry (Annexin V-FITC/PI); format: cell-based, human; conditions: NCI-H460, compound at GI50 concentration (1.4 μM), 48 h, Annexin V/Propidium iodide
Method: Following 48 h treatment of NCI-H460 cells with compound 3c, as described above, the levels of apoptosis were analysed by flow cytometry using the Human Annexin V-FITC/PI apoptosis kit (Bender MedSystems, Vienna, Austria), according to the manufacturer’s instructions. Flow cytometry was carried out using an Epics XL-MCL Coulter flow cytometer plotting at least 20,000 events per sample, as previously described. The data was analysed using the FlowJo 7.2 software (Tree Star, Inc.).

| Structure (SMILES) | melting point | GI50 [2] | GI50 [3] | GI50 [4] | GI50 (A375-C5 (melanoma)) | GI50 at 48 h [1] | other results |
| --- | --- | --- | --- | --- | --- | --- | --- |
| COC(=O)c1sc2cccnc2c1Nc1ccc([N+](=O)[O-])cc1 [2a, Methyl 3-(4-nitrophenylamino)thieno[3,2-b]pyridine-2-carboxylate] | 203 to 205 °C |  |  |  |  |  |  |
| COC(=O)c1sc2cccnc2c1Nc1ccccc1[N+](=O)[O-] [2b, Methyl 3-(2-nitrophenylamino)thieno[3,2-b]pyridine-2-carboxylate] | 202 to 204 °C |  |  |  |  |  |  |
| COC(=O)c1sc2cccnc2c1Nc1ccc(OC)cc1[N+](=O)[O-] [2c, Methyl 3-(4-methoxy-2-nitrophenylamino)thieno[3,2-b]pyridine-2-carboxylate] | 213 to 214 °C |  |  |  |  |  |  |
| COc1cccc2c1C(=O)c1c(O)c3c(c(O)c1C2=O)C[C@@](O)(C(=O)CO)C[C@@H]3O[C@H]1C[C@H](N)[C@H](O)[C@H](C)O1 [Doxorubicin, reference compound] |  | 0.04 ± 0.01 µM | 0.09 ± 0.01 µM |  | 0.13 ± 0.01 µM |  |  |
| Cc1c2ccncc2c(C)c2c1[nH]c1ccccc12 [Ellipticine, reference compound] |  |  |  | 0.8 ± 0.05 µM |  | 4 µM | GI50 ([5]; PLP1 non-tumor porcine liver cells, 48h continuous treatment, SRB, mean ± SD, n = 3): 4.19 µM |

More lines, main results first:

| melting point | GI50 [2] | GI50 [3] | GI50 [4] | GI50 (A375-C5 (melanoma)) | Structure (SMILES) | GI50 at 48 h [1] | other results |
| --- | --- | --- | --- | --- | --- | --- | --- |
|  | > 125 µM | > 125 µM | > 125 µM | 112 ± 5 µM | COC(=O)c1sc2cccnc2c1Nc1ccc(N)cc1 [3a, Methyl 3-(4-aminophenylamino)thieno[3,2-b]pyridine-2-carboxylate] | > 125 µM |  |
| 204 to 206 °C | 33.8 ± 1.7 µM | 31.3 ± 2.9 µM | 99.26 ± 0.92 µM | 26 ± 2.3 µM | COC(=O)c1sc2cccnc2c1Nc1ccccc1N [3b, Methyl 3-(2-aminophenylamino)thieno[3,2-b]pyridine-2-carboxylate] | 61.3 µM |  |
| 172 to 174 °C | 1.4 ± 0.2 µM | 1.4 ± 0.4 µM | 1.63 ± 0.09 µM | 1.3 ± 0.1 µM | COC(=O)c1sc2cccnc2c1Nc1ccc(OC)cc1N [3c, Methyl 3-(2-amino-4-methoxhyphenylamino)thieno[3,2-b]pyridine-2-carboxylate] | 12.5 µM | toxicity to non-tumor cells (in words) ([5]; PLP1, at the GI50 concentrations found in tumor cell lines / versus ellipticine): did not show toxicity; percentage of cells in the G0/G1 phase of the cell cycle (in words) (NCI-H460 cells [6]): significant decrease; % of cells in the sub-G1 peak (in words) (NCI-H460 cells [6]; data not shown): significantly increased; GI50 [7]: < 2 µM; percentage of apoptotic cells (NCI-H460 cells [8]): 36.6 ± 4.8% |
